Assay results as given in US7182965B2, “Soluble composition containing sporopollenin and the use thereof” (priority 2002, dated 2007).

System: skin
Experiment: Skin compatibility, 48 h occlusive patch test, modified Draize evaluation
Details: 1% in water, 48 hours under occlusion, 50 test subjects
Experimental: In this procedure, the GLP Guidelines and the recommendations of the COLIPA work group (Walker A. P. et al.: Test Guidelines for Assessment of Skin Compatibility of Cosmetic Finished Products in Man, Food and Chemical Toxicology 34, 1996, pages 651 to 660) were observed.
The model noxious substance sodium lauryl sulfate at a concentration of 1% in water served as the positive control. Water itself served as the negative control.
The evaluation of the test reaction was carried out after 48 and 72 hours in accordance with the modified Draize test.

CCCCCCCCCCCCOS(=O)(=O)[O-].[Na+] [SDS, sodium lauryl sulfate] was tested, and the “positive reaction, number of test subjects” value was 14 test subjects.
